Assay results taken from patent publication US4115453A (Miles Laboratories, Inc., priority 1977, dated 1978).

Key:
[1] = system: gastric secretion; assay: Test B: Inhibition of Rodent Gastric Secretion (pylorus-ligated rat); assay type: in vivo; details: subcutaneous, 2 x 1.5 mg/kg (total 3.0 mg/kg), 4 hours after pyloric ligation
Procedure: A procedure based on that described by Lipmann (J. Pharm. Pharmacol., 21:335 [ 1968]) was used to assess the influence of test compounds on gastric secretion. Rats of one sex weighing 150 to 200 g were randomly divided into groups of six animals each and fasted for 48 hours previously to the experiments, water being available adlibitum. The animals were anesthetized with ether, the abdomen was opened through a midline incision and the pylorus was ligated. Test compounds were diluted from stock solution so as to administer a dose of 1.5 mg/kg in a volume equivalent to 1 ml/kg. Subcutaneous injections were applied immediately after surgery and again 2 hours later, so that a total dose of 3.0 mg/kg was administered. Dilutions were made with phosphate buffer (pH 7.38) as recommended by Lee et al. (Prostaglandins 3:29 [ 1973]), in order to insure adequate stability of drugs at the subcutaneous depot. Each compound was tested in one group of rats; an additional control group received only the vehicle.
Four hours after pyloric ligation the animals were killed with ether, the cardias ligated and the stomachs removed. The volume of gastric secretion was measured and the contents centrifuged at 5000 rpm for 10 minutes. Total acid in the supernatant was titrated against a 0.1 N sodium hydroxide solution and the amount expressed in mEq.
Volume and total acid values of the treated group were compared with those of the controls by the "T" test. Antisecretory activity was scored according to the following scale: […]

[2] = system: femoral blood flow; assay: Test C: Increase in Canidae Femoral Blood Flow; assay type: in vivo; details: anesthetized dog, intraarterial, 0.001 to 10 mcg
Procedure: The peripheral vasodilator or constrictor effects of test compounds were determined in mongrel dogs of either sex, weighing between 10 and 20 kg anesthestized intravenously with 35 mg/kg of sodium pentobarbital. An external iliac artery was dissected immediately above the femoral arch for a length of approximately 5 cm and a previously calibrated, non-connulating electromagnetic flowmeter sensor with a lumen between 2.5 and 3.5 mm was placed snugly around the vessel. Cannulas were placed in a branch of the artery arising distally to the location of the flowmeter sensor for intraarterial drug administrations, in the contralateral femoral artery for systemic blood pressure recordings and in the trachea for artificial respiration with room air. Femoral blood flow and systemic blood pressure were continuously recorded with an electromagnetic flowmeter and pressure tranducer, respectively.
After an adequate control period, test compounds were injected intraarterially at one log-spaced doses ranging from 0.001 to 10 mcg., in a volume of 0.5 ml and at 5 to 10 minute intervals. Maximum changes in bloodflow, as well as any variations in blood pressure, were tabulated for each dose in absolute values (ml/min. and mmHg). The calculations were made taking as control values those existing immediately before administration of each dose. The direction of the observed change (plus for increase and minus for decrease) was also noted. The dose changing bloodflow by 100 ml/min (ED100 ml/min) was calculated graphically and was used for scoring activity as follows: […]

[3] = system: human platelet aggregation; assay: Test A: Inhibition of Human Platelet Aggregation; assay type: cell-based; details: human platelet rich plasma, in vitro, collagen-induced, 37° C, 15 minutes
Procedure: The ability of test compounds to inhibit platelet aggreagation was determined by a modification of the turbidometric technique of Born (Nature, 194: 927 [1962]). Blood was collected from human volunteer who had not ingested aspirin or aspirin-containing products within the preceding two weeks in heparinized containers and was allowed to settle for one (1) hour. The platelet rich plasma (prp) supernates were collected and cooled. Siliconized glassware was used throughout.
In a representative assay 1.9 ml of PRP and 0.2 ml of test compound at the appropriate concentrations (0.001 to 100 mcgm), or 0.2 ml of distilled water (control procedure) were placed in sample cuvettes. The cuvettes were placed in a 37° C incubation block for 15 minutes, and then in a spectrophotometer linked to a strip chart recorder. After 30-60 seconds, 0.2 ml of a solution, prepared by diluting a calf-skin collagen solution 1:9 with Tyrodes' Solution, was added to each cuvette. Platelet aggregation was evidenced by a decrease in optical density.
An ED50 value was then determined graphically.

[4] = system: blood pressure; assay: Test D: Decrease in Normal Feline Blood Pressure and Heart Rate (anesthetized cat); assay type: in vivo; details: intravenous, 0.01 to 10.0 mcg/kg, judged only on hypotension
Procedure: The acute effects of test compounds on blood pressure and heart rate were determined in cats of either sex anesthetized with a mixture of pentobarbital sodium (35 mg/kg, i.v.) and barbital sodium (100 mg/kg, i.v.). Cannulas were placed in the trachea to allow adequate spontaneous ventilation, in a femoral artery for blood pressure recording with a strain gage transducer, and in a saphenous vein for drug administration. Heart rate was recorded by means of a cardiotachometer driven by the R wave of the electrocardiogram. After a period of 10 minutes of stable recordings of blood pressure and heart rate, the test compound was administered intravenously at doses increasing from 0.01 to 10.0 mcg/kg, spaced one log and injected at 10 minutes intervals. All doses were injected in a volume of 0.1 ml/kg. Modifications of blood pressure and heart rate induced by the test compound were expressed both in absolute units (mmHg and beats/minutes) and as percent of values recorded immediately before administration of each dose. Biphasic responses were tabulated in the order in which they occur. The direction of the observed changes was also noted (+ for increases and - for decreases).
Activity of compounds in this test was judged only on the basis of the degree of hypotension observed. Thus, the ED50 mmHg (dose decreasing blood pressure by 50 mmHg) was calculated graphically and the compound scored according to the following scale: […]

## O=C(O)CCCCCC[C@H]1C(=O)CC[C@@H]1/C=C/[C@H](O)C1CC2CCC2C1 (mixture of isomers) [TR-4096, dl-7-{5-oxo-2R[3R-hydroxy-3-(bicyclo[3.2.0]hept-3-yl)-1E-propenyl[cyclopent-1R-yl}heptanoic acid]
[1]
  Activity Value Test B (% decrease in acidity): 0 (<26)
[2]
  Activity Value Test C (ED100 ml/min, dose changing bloodflow by 100 ml/min): 2 (0.11 - 1.0)
[3]
  Activity Value Test A (ED50, inhibition of platelet aggregation): 1 (>1.0)
[4]
  Activity Value Test D (ED50 mmHg, dose decreasing blood pressure by 50 mmHg): 0 (>10.0)

## O=C(O)CCCCCC[C@H]1C(=O)CC[C@@H]1/C=C/[C@@H](O)C1CC2CCC2C1 (mixture of isomers) [TR-4097, dl-7-{5-oxo-2R-[3S-hydroxy-3-(bicyclo[3.2.0]hept-3-yl)-1E-propenyl]cyclopent-1R-yl}heptanoic acid]
[1]
  Activity Value Test B (% decrease in acidity): 2 (26-50, significant)
[2]
  Activity Value Test C (ED100 ml/min, dose changing bloodflow by 100 ml/min): 1 (1.01 - 10.0)
[3]
  Activity Value Test A (ED50, inhibition of platelet aggregation): 1 (>1.0)
[4]
  Activity Value Test D (ED50 mmHg, dose decreasing blood pressure by 50 mmHg): 0 (>10.0)

## O=C(O)CCC/C=C\C[C@H]1C(=O)CC[C@@H]1/C=C/[C@@H](O)C1CC2CCC2C1 (mixture of isomers) [TR-4102, dl-7-{5-oxo-2R-[8 3S-hydroxy-3-(bicyclo[3.2.0]hept-3-yl)-1E-propenyl]cyclopent-1R-yl}hept-5Z-enoic acid]
[1]
  Activity Value Test B (% decrease in acidity): 4 (76-100)
[2]
  Activity Value Test C (ED100 ml/min, dose changing bloodflow by 100 ml/min): 2 (0.11 - 1.0)
[3]
  Activity Value Test A (ED50, inhibition of platelet aggregation): 1 (>1.0)
[4]
  Activity Value Test D (ED50 mmHg, dose decreasing blood pressure by 50 mmHg): 0 (>10.0)

## O=C(O)CCC/C=C\C[C@H]1C(=O)CC[C@@H]1/C=C/[C@H](O)CCCCC1CCCC2CCCCC21 (mixture of isomers) [TR-4173, dl-7-{5-oxo-2R-[3R-hydroxy-7-(bicyclo[4.4.0]dec-2-yl)-1E-heptenyl]cyclopent-1R-yl}hept-5Z-enoic acid]
[3]
  Activity Value Test A (ED50, inhibition of platelet aggregation): 1 (>1.0)

## O=C(O)CCC/C=C\C[C@H]1C(=O)CC[C@@H]1/C=C/[C@H](O)CCCCC1CCCC2CCCCC21 (relative stereo) [TR-4174, dl-7-{5-oxo-2R-[3R-hydroxy-7-(bicyclo[4.4.0]dec-2-yl)-1E-heptenyl]cyclopent-1R-yl}-hept-5Z-enoic acid]
[3]
  Activity Value Test A (ED50, inhibition of platelet aggregation): 1 (>1.0)

## O=C(O)CCCCCC[C@H]1C(=O)CC[C@@H]1/C=C/[C@@H](O)CCCCC1CCCC2CCCCC21 (relative stereo) [TR-4189, dl-7-{5-oxo-2R[3S-hydroxy-7-(bicyclo[4.4.0]dec-2-yl)-1E-heptenyl]cyclopent-1R-yl}heptanoic acid]
[1]
  Activity Value Test B (% decrease in acidity): 0 (<26)
[3]
  Activity Value Test A (ED50, inhibition of platelet aggregation): 1 (>1.0)

## O=C(O)CCCCCC[C@H]1C(=O)CC[C@@H]1/C=C/[C@H](O)CCCCC1CCCC2CCCCC21 (relative stereo) [TR-4190, dl-7-{5-oxo-2R-[3R-hydroxy-7-(bicyclo[4.4.0]dec-2-yl)-1E-heptenyl]cyclopent-1R-yl}heptanoic acid]
[1]
  Activity Value Test B (% decrease in acidity): 0 (<26)
[3]
  Activity Value Test A (ED50, inhibition of platelet aggregation): 1 (>1.0)

## COC(=O)CCCCCC[C@H]1C(=O)C[C@@H](O)[C@@H]1/C=C/[C@H](O)C1CC2CCC2C1 (stereo partly drawn) [TR-4098, methyl 7-{3R-hydroxy-5-oxo-2R-[3R-hydroxy-3-(bicyclo[3.2.0]hept-3-yl)-1E-propenyl]cyclopent-1R-yl]heptanoate]
[1]
  Activity Value Test B (% decrease in acidity): 4 (76-100)
[2]
  Activity Value Test C (ED100 ml/min, dose changing bloodflow by 100 ml/min): 2 (0.11 - 1.0)
[4]
  Activity Value Test D (ED50 mmHg, dose decreasing blood pressure by 50 mmHg): 2 (0.11 - 1.0)

## COC(=O)CCCCCC[C@H]1C(=O)C[C@@H](O)[C@@H]1/C=C/[C@@H](O)C1CC2CCC2C1 (stereo partly drawn) [TR-4099, methyl 7-{3R-hydroxy-5-oxo-2R-[2S-hydroxy-3-(bicyclo[3.2.0]hept-3-yl)-1E-propenyl]cyclopent-1R-yl)heptanoae]
[1]
  Activity Value Test B (% decrease in acidity): 1 (26-50, not significant)
[2]
  Activity Value Test C (ED100 ml/min, dose changing bloodflow by 100 ml/min): 0 (>10.0)
[3]
  Activity Value Test A (ED50, inhibition of platelet aggregation): 2 (>0.1≤1.0)
[4]
  Activity Value Test D (ED50 mmHg, dose decreasing blood pressure by 50 mmHg): 0 (>10.0)

## COC(=O)CCCCCC[C@H]1C(=O)C[C@@H](O)[C@@H]1/C=C/[C@H](O)CCCCC1CCC2CCC1C2 (stereo partly drawn) [TR-4116, methyl 7-{3R-hydroxy-5-oxo-2R-[3R-hydroxy-7-(bicyclo[3.2.1]oct-2-yl)-1E-heptenyl]cyclopent-1R-yl}heptanoate]
[1]
  Activity Value Test B (% decrease in acidity): 0 (<26)
[2]
  Activity Value Test C (ED100 ml/min, dose changing bloodflow by 100 ml/min): 0 (>10.0)
[3]
  Activity Value Test A (ED50, inhibition of platelet aggregation): 1 (>1.0)
[4]
  Activity Value Test D (ED50 mmHg, dose decreasing blood pressure by 50 mmHg): 0 (>10.0)

## COC(=O)CCCCCC[C@H]1C(=O)C[C@@H](O)[C@@H]1/C=C/[C@@H](O)CCCCC1CCC2CCC1C2 (stereo partly drawn) [TR-4117, methyl 7-{3R-hydroxy-5-oxo-2R-[3S-hydoxy-7-(bicyclo[3.2.1]oct-2-yl)-1E-heptenyl]cyclopent-1R-yl}heptanoate]
[1]
  Activity Value Test B (% decrease in acidity): 0 (<26)
[2]
  Activity Value Test C (ED100 ml/min, dose changing bloodflow by 100 ml/min): 0 (>10.0)
[3]
  Activity Value Test A (ED50, inhibition of platelet aggregation): 1 (>1.0)
[4]
  Activity Value Test D (ED50 mmHg, dose decreasing blood pressure by 50 mmHg): 0 (>10.0)

## COC(=O)CCCCCC[C@H]1C(=O)C=C[C@@H]1/C=C/[C@@H](O)CCCCC1CCC2CCC1C2 (stereo partly drawn) [TR-4118, methyl 7-{5-oxo-2R-[3S-hydroxy-7-(bicyclo[3.2.1]oct-2-yl)-1E-heptenyl]cyclopent-3-en-1R-yl}heptanoate]
[1]
  Activity Value Test B (% decrease in acidity): 0 (<26)
[2]
  Activity Value Test C (ED100 ml/min, dose changing bloodflow by 100 ml/min): 0 (>10.0)
[3]
  Activity Value Test A (ED50, inhibition of platelet aggregation): 1 (>1.0)
[4]
  Activity Value Test D (ED50 mmHg, dose decreasing blood pressure by 50 mmHg): 0 (>10.0)

## COC(=O)CCCCCC[C@H]1C(=O)C=C[C@@H]1/C=C/[C@H](O)CCCCC1CCC2CCC1C2 (stereo partly drawn) [TR-4119, methyl 7-{5-oxo-2R-[3R-hydroxy-7-(bicyclo[3.2.1]oct-2-yl)-1E-hepentyl]cyclopent-3-en-1R-yl}heptanoate]
[1]
  Activity Value Test B (% decrease in acidity): 0 (<26)
[2]
  Activity Value Test C (ED100 ml/min, dose changing bloodflow by 100 ml/min): 0 (>10.0)
[3]
  Activity Value Test A (ED50, inhibition of platelet aggregation): 1 (>1.0)
[4]
  Activity Value Test D (ED50 mmHg, dose decreasing blood pressure by 50 mmHg): 0 (>10.0)

## COC(=O)CCCCCC[C@@H]1[C@@H](/C=C/[C@@H](O)C2CC3CCC3C2)[C@H](O)C[C@@H]1O (stereo partly drawn) [TR-4711, methyl 7-{3R, 5S-dihydroxy-2R-[3S-hydroxy-3-(bicyclo[3.2.0]hept-3-yl)-1E-propenyl]cyclopent-1R-yl}heptanoate]
[1]
  Activity Value Test B (% decrease in acidity): 1 (26-50, not significant)

## COC(=O)CCCCCC[C@@H]1[C@@H](/C=C/[C@@H](O)C2CC3CCC3C2)[C@H](O)C[C@H]1O (stereo partly drawn) [TR-4712, methyl 7-{3R,5R-dihydroxy-2R-[3S-hydroxy-3-(bicyclo[3.2.0]hept-3-yl)-1E-propenyl]cyclopent-1R-yl}heptanoate]
[1]
  Activity Value Test B (% decrease in acidity): 2 (26-50, significant)
